For eight compounds, GI50 and TGI results are on record in PubChem BioAssay (NCI).

Experiment in all cases: inhibition of tumour cell growth, NCI panel, 48 h
The test system of assay [1] is A498 renal.
Assay [2] relates to A549 NSCLC.
For assay [3], the system named is ACHN renal.
Assay [4] concerns MCF7 breast.
For assay [5], the system named is OVCAR-8 ovarian.
For assay [6], the system named is SR leukemia.
Assay [7] relates to TK-10 renal.
Assay [8] relates to U251 CNS.
The test system of assay [9] is UACC-62 melanoma.
The subject of assay [10] is UO-31 renal.

The structures appear in SMILES notation.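 Interpolation was linear, between the two tested concentrations surrounding the appropriate level; five concentrations were tested over 48 hours in 96-well plates. GI50 is the concentration that inhibits growth by half. At the TGI there is no net growth.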

Consider `O=C(O)C(/C=C/c1ccco1)=N\Nc1nc(-c2ccc(Cl)cc2)cs1`, for which the GI50 was more than 50 µM in [1]; 16 µM in [2]; 14.6 µM in assay [3]; 10.2 µM in assay [4]; 6.93 µM in assay [5]; 4.83 µM in assay [6]. Besides, the GI50 is 31.6 µM in assay [7], 4.59 µM in assay [8], 7.79 µM in assay [9] and 12.9 µM in assay [10]. Besides, the TGI in assay [1] is more than 50 µM; in assay [2], more than 50 µM; in [3], more than 50 µM; in assay [4], 40.6 µM; in [5], more than 50 µM; in assay [6], more than 50 µM. In addition, the TGI was more than 50 µM in assay [7], more than 50 µM in [8], 17.7 µM in assay [9] and more than 50 µM in assay [10].
As to `O=C(O)CC(Cc1ccc2c(c1)OCO2)C(=O)O` (stereo not drawn), the TGI in assay [1], in assay [2], in assay [3], in assay [4], in [5] and in [6] was more than 100 µM each time. In addition, the TGI in [7], in assay [8], in assay [9] and in [10] was more than 100 µM each time.
As to `COc1cc(C)cc2c1OC(c1ccccc1)CC2=O` (stereo not drawn), the GI50 in [1], in assay [2], in assay [3], in [4], in assay [5] and in assay [6] was more than 100 µM throughout. The GI50 in [7], in [8], in assay [9] and in assay [10] was more than 100 µM in each case. Further, the TGI in assay [1], in assay [2], in assay [3], in [4], in [5] and in assay [6] was more than 100 µM each time. Moreover, the TGI in assay [7], in [8], in assay [9] and in [10] was more than 100 µM in each case.
For `Cc1cccc(C(C)O)n1` (stereo not drawn), the TGI in [1], in [2], in [3], in assay [4], in [5] and in assay [6] was more than 100 µM in each case. The TGI in [7], in assay [8], in assay [9] and in [10] was more than 100 µM each time.
Consider `O=C(CNC(=O)c1cccc2ccccc12)Nc1ccccc1Oc1cccc(O)c1`, for which the GI50 in assay [1] was 5.11 µM; in [2], 9.64 µM; in assay [3], 17.4 µM; in [4], 4.51 µM; in assay [5], 11.4 µM; in assay [6], 1.05 µM. For the same compound, the GI50 is more than 25 µM in assay [7], 8.41 µM in assay [8], 1.62 µM in assay [9] and 16.5 µM in [10]. Further, the TGI in assay [1], in assay [2], in assay [3], in [4], in assay [5] and in assay [6] was more than 25 µM each time. For the same compound, the TGI in assay [7], in [8], in assay [9] and in assay [10] was more than 25 µM in each case.
With `COc1nccc(-c2c(-c3ccc(F)cc3)ncn2C2CCC(O)CC2)n1` (stereo not drawn), the GI50 in [1] is 21.5 µM; in assay [2], 32.4 µM; in assay [3], 14.8 µM; in assay [4], 24.9 µM; in assay [5], 89.1 µM; in [6], 43 µM. Further, the GI50 in assay [7] is 39.4 µM; in [8] it was more than 86.9 µM; in assay [9], more than 86.9 µM; in [10], 10.1 µM. The TGI in [1], in [2], in assay [3], in assay [4], in assay [5] and in assay [6] was more than 100 µM in each case. The TGI in [7], in [8], in assay [9] and in assay [10] was more than 100 µM throughout.
Consider `Cc1c(C(=O)/C=C/c2ccc(O)cc2)nnn1-c1ccnc2c(C(F)(F)F)cccc12`, for which the GI50 in assay [1] is 51 µM; in assay [2], 8.55 µM; in [3], 31.5 µM; in [4], 23.5 µM; in [5], 10 µM; in assay [6] it was 2.29 µM. Moreover, the GI50 in [7] was 9.28 µM; in [8], 5.14 µM; in [9] it was 18.7 µM; in assay [10], 41.9 µM. The TGI in assay [1] is more than 100 µM; in assay [2], more than 100 µM; in assay [3], more than 100 µM; in assay [4], more than 100 µM; in [5] it was more than 100 µM; in [6] it was 9.86 µM. The TGI in [7] was 73.4 µM; in assay [8], 69.8 µM; in assay [9] it was more than 100 µM; in assay [10] it was more than 100 µM.
Take `CCOC(=O)c1cc2c(cc1Cl)SC(N(c1ccc(F)cc1)S(=O)(=O)c1ccc(OC)cc1)=NS2(=O)=O`: the GI50 in [1] was 23 µM; in [2], 22 µM; in assay [3] it was 18.5 µM; in [4], 11.8 µM; in assay [6], 16.8 µM; in assay [7], 18.8 µM. Further, the GI50 is 16.2 µM in assay [8], 14.6 µM in assay [9] and 17.9 µM in [10]. Further, the TGI was 45.9 µM in assay [1]; more than 100 µM in assay [2]; 42.1 µM in assay [3]; 25.4 µM in assay [4]; 37.9 µM in assay [6]; 54.5 µM in [7]. The values for the TGI in [8], in assay [9] and in [10] were 34.7 µM, 30.5 µM and 42.2 µM, respectively.
